{
  "source": "patent US9066516B2",
  "about": "“Uses of thaxtomin and thaxtomin compositions as herbicides” (priority 2008, dated 2015)",
  "assay_type_in_all_cases": "in vivo",
  "key": {"[1]": {"system": "Rice (variety M209)", "assay": "Field study on rice, yield (Example 6)", "conditions": "Thaxtomin A 180 g/acre", "method": "The efficacy of thaxtomin A derived from a liquid culture of S. acidiscabies is tested in a field study on rice using 4.9 sq-ft plots surrounded by a metal ring. Treatments with either thaxtomin A or thaxtomin A in combination with lemongrass oil (formulated as GreenMatch EX) or cyhalofop (formulated as Clincher CA) were done using a hand-held sprayer with a water volume corresponding to 57 gallons per acre. Rice (variety M209) was grown until maturity and harvested by hand for yield and weed count assessment. Results of yield (kg/ha), and numbers of redstem, small-flower umbrella sedge, and sprangletop in each plot are presented in Table 3 below."}, "[2]": {"system": "Smallflower umbrella sedge", "assay": "Post-emergent MBI-005 + Thiobencarb on Smallflower umbrella sedge (Example 21)", "conditions": "14 days", "method": "[…] Negative controls were sprayed with water. Pots were randomly placed in a growth room at 25° C. and 50% RH, and watered as necessary. Treatments were replicated three times and evaluated at 7 and 14 days for visual % damage, with 0% indicating no damage and 100% indicating plant death.\n(§1) Synergy was calculated as the ratio of observed (E) to expected (E/Ee) percent control using Colby's formula."}, "[3]": {"system": "dandelion", "assay": "Greenhouse synergy test MBI-005 + turf herbicides (Example 11)", "conditions": "14 days", "method": "(§2) The common turf weeds dandelion and plantain were used in testing for synergy between MBI-005 and 2, 4- or dicamba, two common turf herbicides.\n(§3) There were 3 replicates per treatment which were sprayed with approximately ⅔ ml per replicate. The treatments were completely randomized and kept in a greenhouse at 25° C. The efficacy was rated at 7 and 14 days post treatment."}, "[4]": {"system": "plantain", "assay": "Greenhouse synergy test MBI-005 + turf herbicides (Example 11)", "conditions": "14 days", "method": "as §2, §3"}, "[5]": {"system": "barnyard grass", "assay": "Greenhouse spray test bialaphos + MBI-005 (Example 10)", "method": "The MBI-005 and bialaphos were prepared at various concentrations either as single ingredients or in combination with bialaphos. The treatments were applied at approximately ⅔ ml per replicate with a hand-help spray nozzle to barnyard grass or sedge. There were 3 replicates per treatment which were randomized after spray and were kept in a greenhouse at 25° C. for evaluation of phytotoxicity (% control)."}, "[6]": {"system": "ragweed", "assay": "Greenhouse synergy test MBI-005 + commercial herbicides (Example 11)", "conditions": "14 days", "method": "The test species barnyard grass, ragweed, sedge, and broad-leaf mustard were used for the valuation of synergy between MBI-005 and the rice herbicides clomazone, penoxsulam, cyhalofop, fenoxaprop-p-ethyl, bispyribac-sodium, thiobencarb, and propanil.\n[…] other herbicides commonly used for field crops, glyphosate, glufosinate, synthetic version of bialaphos, and mesotrione were also tested for synergy with MBI-005 on crabgrass and ragweed.\nas §3"}, "[7]": {"system": "barnyard grass", "assay": "Post-emergent MBI-005 + Propanil on barnyard grass (Example 20)", "conditions": "14 days", "method": "Negative controls were sprayed with water. Pots were randomly placed in a growth room at 25° C. and 50% RH, and watered as necessary. Treatments were replicated three times and evaluated at 7 and 14 days for visual % damage, with 0% indicating no damage and 100% indicating plant death.\nas §1"}, "[8]": {"system": "wheat (Triticum aestivum var. PR1404)", "assay": "Pot study, phytotoxicity on wheat (Example 2)", "conditions": "0.5 and 1.0 mg/mL, 7, 14 and 21 days after treatment", "method": "A pot study is conducted to test the phytotoxicity of thaxtomin A on corn (Zea mays var. Early Sunglow) and wheat (Triticum aestivum var. PR1404). To confirm the activity on broadleaf weeds, pigweed (Amaranthus sp.) is planted in the same pot with either three corn or five wheat seeds, and sprayed simultaneously with the cereal test plants. The less than 3-inch tall plants grown under growth lights (12-h light/12-h dark) at 28° C. are sprayed with thaxtomin A solutions derived from a liquid culture of S. acidiscabies containing 0.5, and 1.0 mg thaxtomin A per mL of solvent (4% ethanol and 0.2% non-ionic surfactant). A solution of 4% ethanol +0.2% non-ionic surfactant without thaxtomin A is used as a control treatment. Each treatment is conducted in three replicates. Treated plants are kept at 28° C. under growth lights and observed at three time points—7, 14 and 21 days after treatment—for visual symptoms of phytotoxicity on corn and wheat and % control of pigweed."}, "[9]": {"system": "grass species", "assay": "Greenhouse test on grass species (Example 4)", "conditions": "0.5 or 1.0 mg/mL thaxtomin A", "method": "(§4) A strain of S. acidiscabies (ATCC-49003) is grown in oat bran broth for 5 days (25° C., 200 rpm). The whole cell broth with thaxtomin A is extracted using XAD resin. The dried crude extract was resuspended in 4% ethanol and 0.02% non-ionic surfactant at a concentration of 10 mg/mL, and the solutions with two different concentrations of thaxtomin A (0.5 and 1.0 mg/mL) are tested the following broadleaf weed species:\nand on the following grass weed species:\n(§5) All plant species are tested in 4″×4″ plastic pots in three replicates. The untreated control plants are sprayed with the carrier solution (4% Ethanol, 0.02% glycosperse) and the positive control plants with Roundup at a rate corresponding to 1 fl. oz/acre. Treated plants are kept in a greenhouse under 12 h light/12 h dark conditions."}, "[10]": {"system": "crabgrass", "assay": "Crabgrass seed germination, MBI-005 + m-Tyrosine (Example 15)", "conditions": "MBI-005 at 0.0035 mg/mL, 7 DAT", "method": "Forty-five seeds were placed on a ring of blotter paper inside a 3 cm petri dish, covered with 10 cm^3 of inert baked clay particle media and supplied with 7 ml of 0.035 mg/ml MBI-005, a m-Tyrosine concentration, or a combination of MBI-005 and m-Tyrosine (Table 14). Water was used as a negative control. Petri dishes were randomly placed in a growth room at 25° C. and 50% RH. Treatments were replicated three times and germinated seeds were counted 7 days after application; water was added as necessary to maintain moisture levels inside each petri dish.\nSynergy was calculated as the ratio of observed (E) to expected (E/Ee) reduction in germination using Colby's formula."}, "[11]": {"system": "Nightshade, Black—Solanum nigrum", "assay": "Greenhouse weed control by S. acidiscabies extract (Example 4)", "conditions": "0.5 mg/mL", "method": "as §4, §5"}, "[12]": {"system": "Lambsquarter—Chenopodium album", "assay": "Greenhouse weed control by S. acidiscabies extract (Example 4)", "conditions": "Common lambsquarter; 0.5 mg/mL", "method": "as §4, §5"}},
  "data": [
    {"compound": "CN1C(=O)[C@](O)(Cc2cccc(O)c2)N(C)C(=O)[C@@H]1Cc1c[nH]c2cccc([N+](=O)[O-])c12", "note": "[thaxtomin A]", "values": [
      {"measurement": "Yield (kg/ha)", "setting": "[1]; listed as Thaxtomin A", "value": 7876, "unit": "b kg/ha"},
      {"measurement": "Yield (kg/ha)", "setting": "[1]; listed as thaxtomin", "value": "no effect"},
      {"measurement": "Observed Average % Efficacy (E)", "setting": "[2]; first series, 2% MBI-005", "value": "20.", "unit": "%"},
      {"measurement": "Observed Average % Efficacy (E)", "setting": "[2]; first series, .5% MBI-005", "value": 3.3, "unit": "%"},
      {"measurement": "Observed Average % Efficacy (E)", "setting": "[2]; second series, 1% MBI-005", "value": 10.0, "unit": "%"},
      {"measurement": "Observed Average % Efficacy (E)", "setting": "[2]; second series, 2% MBI-005", "value": 79.2, "unit": "%"},
      {"measurement": "% Control MBI-005", "setting": "[3]; MBI-005 0.1 mg/mL (2, 4-D line)", "value": 20.0, "unit": "%"},
      {"measurement": "% Control MBI-005", "setting": "[3]; MBI-005 0.1 mg/mL (dicamba line)", "value": 20.0, "unit": "%"},
      {"measurement": "% Control MBI-005", "setting": "[4]; MBI-005 0.12 mg/mL (dicamba line)", "value": 10.0, "unit": "%"},
      {"measurement": "% Control MBI-005", "setting": "[4]; MBI-005 0.24 mg/mL (2, 4-D line)", "value": 25.0, "unit": "%"},
      {"measurement": "% Control (14 days)", "setting": "[5]; Table 6, MBI-005 0.25 mg/L", "value": 1.3, "unit": "ab %"},
      {"measurement": "% Control (14 days)", "setting": "[5]; Table 7, MBI-005 0.25 mg/mL", "value": 6.7, "unit": "bc %"},
      {"measurement": "% Control (7 days)", "setting": "[5]; Table 8, MBI-005 0.38 mg/mL", "value": 6.7, "unit": "ab %"},
      {"measurement": "% Control (14 days)", "setting": "[5]; Table 8, MBI-005 0.38 mg/mL", "value": 21.7, "unit": "b %"},
      {"measurement": "% Control MBI-005", "setting": "[6]; MBI-005 0.125 mg/mL (bispyribac-sodium line)", "value": 23.3, "unit": "%"},
      {"measurement": "% Control MBI-005", "setting": "[6]; MBI-005 0.125 mg/mL (glufosinate line)", "value": 37.5, "unit": "%"},
      {"measurement": "% Control MBI-005", "setting": "[6]; MBI-005 0.125 mg/mL (glyphosate line)", "value": 6.7, "unit": "%"},
      {"measurement": "Observed Average % Efficacy (E)", "setting": "[7]; 12.5% MBI-005 (of label rate)", "value": 10.0, "unit": "%"},
      {"measurement": "Observed Average % Efficacy (E)", "setting": "[7]; 25% MBI-005 (of label rate)", "value": 20.0, "unit": "%"},
      {"measurement": "symptoms of phytotoxicity", "setting": "[8]", "value": "no symptoms of phytotoxicity are observed"},
      {"measurement": "adverse effects on grass species", "setting": "[9]", "value": "no adverse effects are observed"},
      {"measurement": "E (% controlled compared to UTC)", "setting": "[10]", "value": 14.3, "unit": "%"},
      {"measurement": "AVG No. germinated", "setting": "[10]; forty-five seeds", "value": 38.0},
      {"measurement": "stunting", "setting": "[11]", "value": "severe stunting"},
      {"measurement": "stunting", "setting": "[12]", "value": "severe stunting"}
    ]}
  ]
}
